{
  "source": "patent US8535950B2",
  "about": "“Use of perfluoropolymer submicrometric latexes in the determination of molecular interactions by laser light scattering (LLS)” (Solvay Solexis S.p.A., priority 2005, dated 2013)",
  "test_system": "peptide sequence L-Lys-D-Ala-D-Ala",
  "assay": "Binding constant by laser light scattering (LLS) on perfluoropolymer latex particles coated with receptor-ended surfactant",
  "text": "More specifically the use comprises the following steps: • a) addition to a colloidal aqueous suspension or latex of particles having an average diameter between 5 and 200 nm, preferably between 40 and 80 nm, formed of a perfluorinated, semicrystalline or amorphous polymer, of a sequence of known volumes of an aqueous solution of a mixture containing from 50% to 99.5% by weight of an amphiphylic non ionic surfactant and from 0.5 to 50% by weight of a surfactant ended with a receptor, measuring after each addition the intensity of the scattered light by the suspension by Laser Scattering Light (LLS) and reporting it on a diagram in function of the progressively added solution volume, until reaching an asymptotic value (Ir); • b) addition to the suspension obtained in step a) of a sequence of known volumes of a ligand aqueous solution, measuring after each addition the intensity of the scattered light by the suspension by Laser Scattering Light (LLS) its reporting on a diagram in function of the progressively added solution volume (expressed as molar concentration [T0]), until reaching an asymptotic value and fitting the scattered light intensity data (I) in function of the ligand additions ([T0]) with formula (1) to obtain the receptor-ligand binding constant (K), wherein formula (1) is: […]",
  "note": "Counter-ions that a name gives are not always drawn.",
  "data": [
    {"smiles": "CN[C@H](CC(C)C)C(=O)N[C@H]1C(=O)N[C@@H](CC(N)=O)C(=O)N[C@H]2C(=O)N[C@H]3C(=O)N[C@H](C(=O)N[C@H](C(=O)O)c4cc(O)cc(O)c4-c4cc3ccc4O)[C@H](O)c3ccc(c(Cl)c3)Oc3cc2cc(c3O[C@@H]2O[C@H](CO)[C@@H](O)[C@H](O)[C@H]2O[C@H]2C[C@](C)(N)[C@H](O)[C@H](C)O2)Oc2ccc(cc2Cl)[C@H]1O", "note": "[Vancomycin, Vancomycin hydrochloride hydrate]", "values": [
      {"measurement": "receptor-ligand binding constant", "setting": "Example 1: 0.1% latex, 78 nm particles of TFE copolymer with 40% by moles perfluoromethylvinylether, 0.4 millimole Vancomycin solution in 6 microlitre portions, Langmuir fit", "value": "1.5e+06", "unit": "mol⁻¹"},
      {"measurement": "receptor-ligand binding constant", "setting": "Example 2: 0.1% latex, 40 nm particles of TFE copolymer with 30% by moles TTD, 0.9 millimolar Vancomycin in 6 microlitre portions", "value": "1.1e+06", "unit": "mol⁻¹"}
    ]}
  ]
}
